The source of these data is ChEMBL document CHEMBL1152077, “Novel, water-soluble phosphate derivatives of 2-ethoxy carbonylpaclitaxel as potential prodrugs of paclitaxel: Synthesis and antitumor evaluation” (1995).

Holding throughout (assay type): functional
The test system of test [1] is Mus musculus. In words: Tested in vivo antitumor activity at a dose of subcutaneous 24 mg/kg/injection relative to paclitaxel in Madison 109 murine lung carcinoma (M109).
Test [2] deals with Mus musculus. The test can be described thus: Tested in vivo antitumor activity at a dose of subcutaneous 40 mg/kg/injection in Madison 109 murine lung carcinoma (M109).
The test system of test [3] is Mus musculus. The test can be described thus: Tested in vivo antitumor activity at a dose of subcutaneous 48 mg/kg/injection relative to paclitaxel in Madison 109 murine lung carcinoma (M109).
Test [4] relates to Mus musculus. The test can be described thus: Tested in vivo antitumor activity at a dose of subcutaneous 33 mg/kg/injection in Madison 109 murine lung carcinoma (M109).
The subject of test [5] is Mus musculus. The test can be described thus: Tested in vivo antitumor activity at a dose of subcutaneous 18 mg/kg/injection relative to paclitaxel in Madison 109 murine lung carcinoma (M109).

SMILES strings stand for the structures.

As for `CCOC(=O)O[C@@H](C(=O)O[C@H]1C[C@@]2(O)[C@@H](OC(=O)c3ccccc3)[C@@H]3[C@]4(OC(C)=O)CO[C@@H]4C[C@H](OC(=O)c4ccccc4COP(=O)([O-])O)[C@@]3(C)C(=O)[C@H](OC(C)=O)C(=C1C)C2(C)C)[C@@H](NC(=O)c1ccccc1)c1ccccc1.[K+]`, the T-C in the test with Mus musculus [1] is reported as 10.8 days (optimal dose)-1; in the test with Mus musculus [2] it was 17 days (optimal dose)-1.
With `CCOC(=O)O[C@@H](C(=O)O[C@H]1C[C@@]2(O)[C@@H](OC(=O)c3ccccc3)[C@@H]3[C@]4(OC(C)=O)CO[C@@H]4C[C@H](OC(=O)Cc4ccccc4OP(=O)([O-])O)[C@@]3(C)C(=O)[C@H](OC(C)=O)C(=C1C)C2(C)C)[C@@H](NC(=O)c1ccccc1)c1ccccc1.[Na+]`, the T-C in the test with Mus musculus [3] was 15.8 days (optimal dose)-1; with Mus musculus [4], 1.5 days (optimal dose)-1.
Consider `CCOC(=O)O[C@@H](C(=O)O[C@H]1C[C@@]2(O)[C@@H](OC(=O)c3ccccc3)[C@@H]3[C@]4(OC(C)=O)CO[C@@H]4C[C@H](OC(=O)CC(C)(C)c4c(C)cc(C)cc4OP(=O)([O-])O)[C@@]3(C)C(=O)[C@H](OC(C)=O)C(=C1C)C2(C)C)[C@@H](NC(=O)c1ccccc1)c1ccccc1.[Na+]`, for which the T-C in the test with Mus musculus [2] is reported as 18 days (optimal dose)-1; in the test with Mus musculus [5] it was 12.3 days (optimal dose)-1.
